Data on 1 substance can be found in PMC8000724, “Trans-Epithelial Transport, Metabolism, and Biological Activity Assessment of the Multi-Target Lupin Peptide [sequence] (P5) and Its Metabolite [sequence] (P5-Met)” (Nutrients, 2021).

One data set concerns HNF-1α. Nature of the data set: Western blot, HNF-1α protein level in HepG2 cells. It is filed as cell-based, human. As to conditions: HepG2, 50 µM, 24 h, mean ± SD. The method, then: The HepG2 cell line was bought from ATCC (HB-8065, ATCC from LGC Standards, Milan, Italy) and was cultured in DMEM high glucose with stable L-glutamine, supplemented with 10% FBS, 100 U/mL penicillin, 100 µg/mL streptomycin (complete growth medium) with incubation at 37 °C under 5% CO2 atmosphere.
Immunoblotting experiments were performed using optimized protocol. A total of 1.5 × 10^5 HepG2 cells/well (24-well plate) were treated with 50 μM of P5 and P5-met for 24 h. After each treatment, the supernatants were collected and stored at −20°C; cells were scraped in 40 µL ice-cold lysis buffer (RIPA buffer + inhibitor cocktail + 1:100 PMSF + 1:100 Na-orthovanadate + 1:1000 β-mercaptoethanol) and transferred in ice-cold microcentrifuge tubes. […] Total proteins were quantified by the Bradford’s method and 50 μg of total proteins loaded on a pre-cast 7.5% Sodium Dodecyl Sulfate-Polyacrylamide (SDS-PAGE) gel at 130 V for 45 min. […] Target proteins, on milk or BSA blocked membrane, were detected by primary antibodies as follows: anti-SREBP-2, anti-LDLR, anti-HMGCoAR, anti-PCSK9, anti HNF1-α and anti-β-actin. Secondary antibodies conjugated with HRP and a chemiluminescent reagent were used to visualize target proteins and their signal was quantified using the Image Lab Software (Biorad, Hercules, CA, USA). […]

The test system of data set [1] is differentiated Caco-2 cells (AP membrane peptidases). Nature of the data set: Metabolites of P5 produced by Caco-2 cell peptidases, MS analysis of AP solutions. It is filed as in vitro ADME, human. Set-up: key to Metabolite of P5 identified in the AP compartment: Mixture / Metabolite of P5 identified in the AP compartment: Alone: x, detected; n.d., not detected. The method, then: Prior to experiments, the cell monolayer integrity and differentiation were checked by TEER measurement as described in detail above. Peptide trans-epithelial passage was assayed in differentiated Caco-2 cells in transport buffer solution (137 mM NaCl, 5.36 mM KCl, 1.26 mM CaCl2, and 1.1 mM MgCl2, 5.5 mM glucose) according to previously described conditions. In order to reproduce the pH conditions existing in vivo in the small intestinal mucosa, the apical (AP) solutions were maintained at pH 6.0 (buffered with 10 mM morpholinoethane sulfonic acid), and the basolateral (BL)solutions were maintained at pH 7.4 (buffered with 10 mM […]). Prior to transport experiments, cells were washed twice with 500 µL PBS containing Ca^++ and Mg^++. Peptide transportation by mature Caco-2 cells was assayed by loading the AP compartment with P5 alone, in mixture with […] (P3) and […] (P7), and/or P5-met (500 μM) in the AP transport solution (500 µL) and the BL compartment with the BL transport solution (700 µL). The plates were incubated at 37 °C and the BL solutions were collected at different time points (i.e., 15, 30, 60, 90, and 120 min) and replaced with fresh solutions pre-warmed at 37 °C. All BL and AP solutions collected at the end of the transport experiment were stored at −80 °C prior to analysis. Three independent transport experiments were performed, each in duplicate. In order to assess the involvement of transcytotic process in peptides passage, parallel transport experiments were performed in the presence of 500 nM wortmannin in both the AP and BL compartment, over 60 min incubation time.
The medium collected at the end of transport experiments from AP and BL chambers (500 µL and 700 µL, respectively) were freeze-dried and residues were solubilized in HPLC water (100 µL). Samples were desalted with C18 resin ZipTip by using 80% ACN, 0.1% FA as eluent (Millipore Corporation, Bedford, MA, USA). Each sample was lyophilized under speed-vacuum for 5 h at 30°C and re-dissolved in 50 μL (0.1% formic acid), before MS analysis. Purified BL samples were analyzed on a SL IT mass spectrometer interfaced with a HPLC- Chip Cube source (Agilent Technologies, Palo Alto, CA, USA). Data were processed with MSD Trap control 4.2, and Data analysis 4.2 version (Agilent Technologies, Palo Alto, CA, USA). The chromatographic separation was performed using a 1200 HPLC system equipped with a binary pump. […] Specifically, The monitored MRM transitions of P5-met were from the mono-charged precursor ion [M^+H]^+ (m/z 882.43) to product-ions m/z 678.3 and 407.1, respectively. […]

For H-LPKHSDAD-OH [Peptide P5-met], in the data set with HNF-1α, the “Decrease of HNF-1α protein” value was 10.8 ± 3.5%. Also, the “Spectral Intensity of the metabolite in the AP compartment” value in data set [1] (Caco-2, AP compartment, end of incubation 120 min, used as measure of metabolite abundance) was 1.21 × 10^7. Also, the “Metabolite of P5 identified in the AP compartment: Alone” value in data set [1] (P5 incubated alone (500 μM), Caco-2, end of incubation 120 min) is “x”. Besides, the “Metabolite of P5 identified in the AP compartment: Mixture” value in data set [1] (P5 incubated in mixture with P3 and P7 (500 μM each), Caco-2, end of incubation 120 min) was “x”.
